Data from patent US5240961A, “Method of treating reduced insulin-like growth factor and bone loss associated with aging” (priority 1992, dated 1993).
Values joined by “and” are separate entries in the source; they are usually repeats but may differ in a detail not shown here. Identical values can stand only once. “Also recorded” adds a separate entry of the source. Like-named read-outs stand apart in the source and are kept apart here. Each block holds one compound with its values, some of them ahead of it.

What was measured:
serum osteocalcin = experiment: Comparative effects of L-carnitine, acetyl carnitine and γ-butyrobetaine on serum osteocalcin in adult mice; format: in vivo, mouse (BALB/c male); conditions: for Osteocalcin: actual intake estimated about half
Experimental: (§1) The present invention is further explained by the following examples which should not be construed by way of limiting the scope of the present invention. In the following examples, serum carnitine levels were determined by the method of R. Parvin et al., Anal. Biochem., vol. 79 (1979) pp. 190-201. Serum IGF-1 concentrations were measured by immunoradiometric assay, for example, by IRMA Kit available from Diagnostic Systems Laboratories, Inc., Webster, Texas. Serum osteocalcin levels were measured according to the method of Grunaberg et al., Meth. Enzymology, vol 107 (1984) 516, and which is embodied in an osteocalcin kit available from Biomedical Technologies, Inc., Stoughton, Mass. All mice used in the animal studies were BALB/c strain which is commercially available.
(§2) Tests were performed to compare the effects on serum osteocalcin of diet supplementation with L-carnitine, its precursor, γ-butyrobetaine (available from Aldrich Chemical Co.) and one of its metabolites, acetylcarnitine (available from Life Science Resources, Milwaukee, Wis. 53223). Twenty adult mice, i.e., three months of age, (BALB/c male mice) were divided into seven groups. Each of the groups was fed diets as indicated hereinbelow for twelve weeks. One group (n=3) was fed a diet with L-carnitine supplementation at a dose of 50 mg/kg of body weight each day, while the second group (n=3) was fed L-carnitine at a daily dose of about 100 mg/kg. The third group (n=2) was fed a diet with acetylcarnitine supplementation at a daily dose of 50 mg/kg, while the fourth group (n=3) was fed a daily dose of 100 mg/kg of this compound. The fifth group (n=2) was fed a daily dose of 50 mg/kg of γ-butyrobetaine supplementation,while the sixth group was fed a daily dose of 100 mg/kg of γ-butyrobetaine. The seventh group (n=4) was fed normal, unsupplemented feed (control). Mouse blood was sampled prior to beginning of the trial (pretreatment), at six weeks, and at the end of the trial (twelve weeks). The samples were evaluated for serum osteocalcin levels at six and twelve weeks. Total carnitine was determined at twelve weeks.

[1] = Serum carnitine at 12 weeks in adult mice fed L-carnitine, acetyl carnitine or γ-butyrobetaine; parameters: species or system mouse (BALB/c male); conditions: mouse, in vivo, po
Experimental: as §1, §2

[2] = prolonged treatment, moderate or high doses; cited from earlier work
[3] = human beings; cited from earlier work
[4] = system: children with carnitine deficiency; conditions: carnitine repletion; cited from earlier work
[5] = prolonged treatment, moderate or high doses; cited from earlier work; remark: listed apart in the source
body composition = conditions: replacement doses; cited from earlier work
[6] = compared to other vitamin D analogues; cited from earlier work

Compound: CC(=O)O[C@H](CC(=O)[O-])C[N+](C)(C)C [acetyl L-carnitine, acetylcarnitine, reference compound]
- significance of difference in osteocalcin vs control (p, student's t test) (serum osteocalcin; 50 mg/kg/day): < 0.01
- Osteocalcin (serum osteocalcin; 50 mg/kg/day, 6 wks): 70 ng/mL and 70 ± 4 ng/mL
- Osteocalcin (serum osteocalcin; 50 mg/kg/day, 12 wks): 62 ng/mL
- Osteocalcin (serum osteocalcin; 100 mg/kg/day, 6 wks): 60 ng/mL and 61 ± 6 ng/mL
- Osteocalcin (serum osteocalcin; 100 mg/kg/day, 12 wks): 77 ng/mL
- concentration at 2016 h ([1]; 50 mg/kg/day, 12 wks, read-out: Serum carnitine, Free): 45.6 µM
- concentration at 2016 h ([1]; 50 mg/kg/day, 12 wks, read-out: Serum carnitine, Total): 59.6 µM
- concentration at 2016 h ([1]; 100 mg/kg/day, 12 wks, read-out: Serum carnitine, Free): 52.1 µM
- concentration at 2016 h ([1]; 100 mg/kg/day, 12 wks, read-out: Serum carnitine, Total): 65.1 µM

- concentration at 2016 h ([1]; 50 mg/kg/day, Serum carnitine, Free): 40.7 µM
- concentration at 2016 h ([1]; 50 mg/kg/day, Serum carnitine, Total): 63.2 µM
- concentration at 2016 h ([1]; 100 mg/kg/day, Serum carnitine, Free): 40.4 µM
- concentration at 2016 h ([1]; 100 mg/kg/day, Serum carnitine, Total): 58.5 µM
Compound: C[N+](C)(C)CCCC(=O)[O-] [γ-butyrobetaine, 4-trimethylamino butyrate]
- significance of difference in osteocalcin vs control (p, student's t test) (serum osteocalcin; 50 mg/kg/day): < 0.05
- Osteocalcin (serum osteocalcin; 50 mg/kg/day, 6 wks): 184 ng/mL and 184 ± 6 ng/mL
- Osteocalcin (serum osteocalcin; 50 mg/kg/day, 12 wks): 173 ng/mL
- significance of difference in osteocalcin vs control (p, student's t test) (serum osteocalcin; 100 mg/kg/day): < .01
- Osteocalcin (serum osteocalcin; 100 mg/kg/day, 6 wks): 220 ng/mL and 220 ± 75 ng/mL
- Osteocalcin (serum osteocalcin; 100 mg/kg/day, 12 wks): 122 ng/mL
- effect on osteocalcin (serum osteocalcin; adult mice, 50 and 100 mg/kg/day): stimulate osteocalcin production in adult mice; also recorded: maintained osteocalcin blood levels; also recorded: at least as effective as, and possibly better than, L-carnitine in increasing osteocalcin levels

Compound: IGF-1: insulin-like growth factor 1, produced and released by the liver in response to growth hormone
- potential side-effects [2]: abdominal bloating, indigestion and nausea, and alteration in cellular insulin receptor sites

Compound: C[N+](C)(C)CC(O)CC(=O)[O-] (stereo not drawn) [carnitine, β-hydroxy-γ-N-trimethylammounium butyrate]
- serum half-life [3]: about 30 minutes
- stunted growth [4]: normalizes with carnitine repletion

Compound: growth hormone: pituitary growth hormone, now readily available as a biosynthetic product
- side-effects observed [5]: stimulation of neoplastic growth, acromegaly, amenorrhea, flushing and nausea, "dawn" phenomena (a condition of insulin insufficiency which is very dangerous for diabetics), either hyperglycemia or hypoglycemia in diabetics, and fluid retention
- alterations in body composition (body composition): can be reversed by replacement doses of the hormone

Compound: C=C1/C(=C\C=C2/CCC[C@]3(C)[C@@H]([C@H](C)/C=C/[C@H](C)C(C)C)CC[C@@H]23)C[C@@H](O)C[C@@H]1O [1α-hydroxy vitamin D2]
- toxicity [6]: low toxicity
